Source: US9212186B2, “Bicyclic pyrazole LRRK2 small molecule inhibitors” (Genentech, Inc., priority 2012, dated 2015)

These molecules were tested against LRRK2 G2019S (Homo sapiens (Human), UniProt Q5S007, G2019S) (assay: In Vitro LRRK2 Lanthascreen Binding Assay).
Description: In Vitro LRRK2 Lanthascreen Binding Assay
This assay was used to determine a compound's potency in inhibiting activity of LRRK2 by determining, Kiapp, IC50, or percent inhibition values. In 384 well proxiplates F black, shallow well plates LRRK2, Eu-anti-GST-antibody, Alexa Fluor® Kinase tracer 236 and test compound were incubated together.
Binding of the Alexa Fluor® “tracer” to a kinase is detected by addition of a Eu-labeled anti-GST antibody. Binding of the tracer and antibody to a kinase results in a high degree of FRET, whereas displacement of the tracer with a kinase inhibitor results in a loss of FRET.
Assay conditions and materials used were as follows:
Final Assay Conditions: • GST-LRRK2 G2019S 10 nM
Eu-anti-GST-antibody 2 nM • Kinase tracer 236 8.5 nM • Kinase reaction time: 1 hour • Temperature: ambient • Total volume: 15 μl • DMSO 1%
384 well proxiplates F black shallow well Perkin Elmer cat #6008260
Eu-labeled anti-GST antibody Invitrogen cat # PV5594
Alexa Fluor® Kinase tracer 236 Invitrogen cat #PV5592 • TRIS-HCl Sigma cat # T3253 • EGTA Sigma cat # E3889 • Brij-35: Sigma cat # B4184 (30% w/v) • DMSO: Sigma cat # D8418 • MgCl2 Sigma cat # M9272
Reaction Buffer: H2O/50 mM Tris, pH 7.4/10 mM MgCl2/1 mM EGTA/0.01% Brij 35
Compound Plate Preparation:
Serially dilute test compounds (10 mM stock) 1:3.16 (20 ul+43.2 ul) in 100% DMSO. 12 pt curve. Dilute each concentration 1:33.3 (3 ul+97 ul) in reaction buffer. Stamp 5 ul to assay plate. Final top test concentration 100 uM
Total and Blank Preparation:
In Reaction Buffer, 5 ul of DMSO (3%) was added to total and blank wells and 5 ul of Eu-labeled anti-GST antibody (6 nM) was added to blank wells. Add 5 ul LRRK2 (30 nM)/Eu-labeled anti-GST antibody (6 nM) mix to compound and total wells.
Add 5 ul kinase tracer (25.5 nM) to all wells. Incubate plates at room temperature for 1 hour on a plate shaker (gentle shaking). Read on Perkin Elmer EnVision reader HTRF protocol
Calculate ratio: (665/620)*10000. Subtract mean background values from all data points. Calculate % of control for each test value. Plot % of control vs Compound concentration. Calculate Ki Value (xlfit curve fitting—Morrison equation). Results expressed as a Ki in μM. Equation for Ki: Y=V0*(1−((x+Ki*(1+S/Km)+Et)/(2*Et)−(((x+Ki*(1+S/Km)+Et)^2−(4*Et*x))^0.5)/(2*Et)))
Tracer concentration (S)=8.5 nM

Chain of LRRK2 G2019S (Q5S007 whole entry G2019S): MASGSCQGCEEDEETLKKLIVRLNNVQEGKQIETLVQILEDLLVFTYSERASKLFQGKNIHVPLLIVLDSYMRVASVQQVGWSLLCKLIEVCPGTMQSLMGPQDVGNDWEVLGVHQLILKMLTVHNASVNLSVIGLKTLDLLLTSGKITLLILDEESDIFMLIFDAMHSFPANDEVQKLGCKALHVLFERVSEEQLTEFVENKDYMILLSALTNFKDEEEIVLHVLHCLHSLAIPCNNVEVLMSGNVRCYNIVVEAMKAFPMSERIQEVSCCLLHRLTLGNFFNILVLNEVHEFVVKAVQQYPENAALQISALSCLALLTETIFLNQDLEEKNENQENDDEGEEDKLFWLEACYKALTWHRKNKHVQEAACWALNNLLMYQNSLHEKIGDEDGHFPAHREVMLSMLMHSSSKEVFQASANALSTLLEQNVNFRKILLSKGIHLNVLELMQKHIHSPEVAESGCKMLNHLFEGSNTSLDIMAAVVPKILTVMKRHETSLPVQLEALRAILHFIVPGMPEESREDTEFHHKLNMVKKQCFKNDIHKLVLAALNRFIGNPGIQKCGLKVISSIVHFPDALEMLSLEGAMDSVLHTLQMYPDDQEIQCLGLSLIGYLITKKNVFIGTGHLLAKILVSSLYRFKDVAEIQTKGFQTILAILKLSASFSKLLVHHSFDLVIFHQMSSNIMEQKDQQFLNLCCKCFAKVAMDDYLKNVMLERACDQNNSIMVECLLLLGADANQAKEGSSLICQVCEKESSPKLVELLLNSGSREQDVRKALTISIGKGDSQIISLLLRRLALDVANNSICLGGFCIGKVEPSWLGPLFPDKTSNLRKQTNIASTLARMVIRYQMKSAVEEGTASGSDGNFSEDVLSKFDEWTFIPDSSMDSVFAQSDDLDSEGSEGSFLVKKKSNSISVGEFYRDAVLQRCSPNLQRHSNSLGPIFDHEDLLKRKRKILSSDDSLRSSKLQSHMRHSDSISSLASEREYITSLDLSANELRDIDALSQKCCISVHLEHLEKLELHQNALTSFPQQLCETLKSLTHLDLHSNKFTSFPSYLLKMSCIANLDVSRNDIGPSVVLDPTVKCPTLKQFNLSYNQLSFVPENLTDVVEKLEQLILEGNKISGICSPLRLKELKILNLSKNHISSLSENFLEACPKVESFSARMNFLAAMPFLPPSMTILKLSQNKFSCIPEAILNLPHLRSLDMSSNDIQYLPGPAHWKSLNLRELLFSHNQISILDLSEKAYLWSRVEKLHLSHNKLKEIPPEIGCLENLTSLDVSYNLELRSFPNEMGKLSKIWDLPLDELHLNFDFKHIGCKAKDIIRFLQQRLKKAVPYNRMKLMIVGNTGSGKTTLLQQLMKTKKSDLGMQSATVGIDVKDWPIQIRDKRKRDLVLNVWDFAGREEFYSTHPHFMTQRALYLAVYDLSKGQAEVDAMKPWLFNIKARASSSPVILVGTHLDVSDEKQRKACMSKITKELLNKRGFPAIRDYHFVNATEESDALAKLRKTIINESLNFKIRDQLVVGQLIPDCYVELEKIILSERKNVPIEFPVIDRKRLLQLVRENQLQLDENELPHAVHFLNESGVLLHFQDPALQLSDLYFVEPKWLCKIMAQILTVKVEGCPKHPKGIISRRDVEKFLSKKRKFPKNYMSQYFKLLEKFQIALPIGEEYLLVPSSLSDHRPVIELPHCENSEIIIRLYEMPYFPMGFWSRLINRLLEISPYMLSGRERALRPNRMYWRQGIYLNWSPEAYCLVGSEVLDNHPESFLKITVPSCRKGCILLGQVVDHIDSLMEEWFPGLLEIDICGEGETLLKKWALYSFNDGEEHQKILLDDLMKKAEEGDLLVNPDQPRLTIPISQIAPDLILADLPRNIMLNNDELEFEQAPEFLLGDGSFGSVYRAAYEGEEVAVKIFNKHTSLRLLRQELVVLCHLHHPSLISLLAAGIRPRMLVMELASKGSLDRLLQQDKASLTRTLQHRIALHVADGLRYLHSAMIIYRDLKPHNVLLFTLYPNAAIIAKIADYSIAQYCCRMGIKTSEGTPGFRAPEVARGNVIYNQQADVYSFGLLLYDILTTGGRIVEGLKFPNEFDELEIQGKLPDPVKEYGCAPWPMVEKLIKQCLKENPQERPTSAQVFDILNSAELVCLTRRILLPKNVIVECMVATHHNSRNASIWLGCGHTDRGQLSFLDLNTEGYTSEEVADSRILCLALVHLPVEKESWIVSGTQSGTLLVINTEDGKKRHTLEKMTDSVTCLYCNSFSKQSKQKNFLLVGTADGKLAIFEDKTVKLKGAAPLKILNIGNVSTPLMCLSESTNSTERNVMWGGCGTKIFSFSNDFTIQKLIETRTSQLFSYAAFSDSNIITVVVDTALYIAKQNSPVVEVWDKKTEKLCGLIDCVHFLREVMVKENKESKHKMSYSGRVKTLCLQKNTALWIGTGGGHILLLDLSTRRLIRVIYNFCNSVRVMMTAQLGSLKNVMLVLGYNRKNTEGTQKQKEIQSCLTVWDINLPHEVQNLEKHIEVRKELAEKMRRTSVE

Ki [µM]	SMILES
0.02	CNc1nc(Nc2cnn3c2[C@H](C)N(C)CC3)ncc1C(F)(F)F [Example 5, (S)-N2-(4,5-dimethyl-4,5,6,7-tetrahydropyrazolo[1,5-a]pyrazin-3-yl)-N4-methyl-5-(trifluoromethyl)pyrimidine-2,4-diamine]
0.0026	CNc1nc(Nc2cnn3c2C(C)OCC3(C)C)ncc1C(F)(F)F (single isomer, unassigned) [Example 12, N4-methyl-5-(trifluoromethyl)-N2-(4,7,7-trimethyl-6,7-dihydro-4H-pyrazolo[5,1-c][1,4]oxazin-3-yl)pyrimidine-2,4-diamine]
0.279	CNc1nc(Nc2cnn3c2C(C)OCC3)ncc1C(F)(F)F (stereo not shown) [Example 15, N4-methyl-N2-(4-methyl-6,7-dihydro-4H-pyrazolo[5,1-c][1,4]oxazin-3-yl)-5-(trifluoromethyl)pyrimidine-2,4-diamine]
0.184	CNc1nc(Nc2cnn3c2[C@@H](C)N(C)CC3)ncc1C(F)(F)F [Example 6, (R)-N2-(4,5-dimethyl-4,5,6,7-tetrahydropyrazolo[1,5-a]pyrazin-3-yl)-N4-methyl-5-(trifluoromethyl)pyrimidine-2,4-diamine]
0.0006	CNc1nc(Nc2cnn3c2CCC3)ncc1C(F)(F)F [Example 24, N2-(5,6-dihydro-4H-pyrrolo[1,2-b]pyrazol-3-yl)-N4-methyl-5-(trifluoromethyl)pyrimidine-2,4-diamine]
0.0018	CNc1nc(Nc2cnn3c2C(C)OC(C)C3)ncc1C(F)(F)F (stereo not shown) [Example 18, N2-(4,6-dimethyl-6,7-dihydro-4H-pyrazolo[5,1-c][1,4]oxazin-3-yl)-N4-methyl-5-(trifluoromethyl)pyrimidine-2,4-diamine]
0.0095	CCNc1nc(Nc2cnn3c2[C@H](C)N(C)CC3)ncc1C(F)(F)F [Example 7, (S)-N2-(4,5-dimethyl-4,5,6,7-tetrahydropyrazolo[1,5-a]pyrazin-3-yl)-N4-ethyl-5-(trifluoromethyl)pyrimidine-2,4-diamine]
0.0003	CCNc1nc(Nc2cnn3c2COC(C)(C)C3)ncc1C(F)(F)F [Example 23, N2-(6,6-dimethyl-6,7-dihydro-4H-pyrazolo[5,1-c][1,4]oxazin-3-yl)-N4-ethyl-5-(trifluoromethyl)pyrimidine-2,4-diamine]
0.0057	CNc1nc(Nc2cnn3c2C(C)OC(C)C3)ncc1C(F)(F)F (single isomer, unassigned) [Example 20, N2-(4,6-dimethyl-6,7-dihydro-4H-pyrazolo[5,1-c][1,4]oxazin-3-yl)-N4-methyl-5-(trifluoromethyl)pyrimidine-2,4-diamine]
0.0023	CNc1nc(Nc2cnn3c2COCC3)ncc1C(F)(F)F [Example 17, N2-(6,7-dihydro-4H-pyrazolo[5,1-c][1,4]oxazin-3-yl)-N4-methyl-5-(trifluoromethyl)pyrimidine-2,4-diamine]
0.0075	CNc1nc(Nc2cnn3c2CCCC3)ncc1C(F)(F)F [Example 3, N4-methyl-N2-(4,5,6,7-tetrahydropyrazolo[1,5-a]pyridin-3-yl)-5-(trifluoromethyl)pyrimidine-2,4-diamine]
0.0009	CNc1nc(Nc2cnn3c2COC(C)(C)C3)ncc1C(F)(F)F [Example 22, N2-(6,6-dimethyl-6,7-dihydro-4H-pyrazolo[5,1-c][1,4]oxazin-3-yl)-N4-methyl-5-(trifluoromethyl)pyrimidine-2,4-diamine]
0.0335	CNc1nc(Nc2cnn3c2CN(C)CC3)ncc1C(F)(F)F [Example 26, N^4-methyl-N^2-(5-methyl-4,5,6,7-tetrahydropyrazolo[1,5-a]pyrazin-3-yl)-5-(trifluoromethyl)pyrimidine-2,4-diamine]
0.0109	CNc1nc(Nc2cc3n(n2)CCOC3)ncc1C(F)(F)F [Example 30, N^2-(6,7-dihydro-4H-pyrazolo[5,1-c][1,4]oxazin-2-yl)-N^4-methyl-5-(trifluoromethyl)pyrimidine-2,4-diamine]
0.003	CNc1nc(Nc2cnn3c2C(C)OCC3)ncc1C(F)(F)F (single isomer, unassigned) [Example 16, N4-methyl-N2-(4-methyl-6,7-dihydro-4H-pyrazolo[5,1-c][1,4]oxazin-3-yl)-5-(trifluoromethyl)pyrimidine-2,4-diamine]
0.144	CCNc1nc(Nc2cnn3c2[C@@H](C)N(C)CC3)ncc1C(F)(F)F [Example 8, (R)-N2-(4,5-dimethyl-4,5,6,7-tetrahydropyrazolo[1,5-a]pyrazin-3-yl)-N4-ethyl-5-(trifluoromethyl)pyrimidine-2,4-diamine]
0.0613	CNc1nc(Nc2cnn3c2C(C)OC(C)C3)ncc1C(F)(F)F (single isomer, unassigned) [Example 19, N2-(4,6-dimethyl-6,7-dihydro-4H-pyrazolo[5,1-c][1,4]oxazin-3-yl)-N4-methyl-5-(trifluoromethyl)pyrimidine-2,4-diamine]
0.0312	CNc1nc(Nc2cnn3c2N(C)CC3)ncc1C(F)(F)F [Example 25, N4-methyl-N2-(1-methyl-2,3-dihydro-1H-imidazo[1,2-b]pyrazol-7-yl)-5-(trifluoromethyl)pyrimidine-2,4-diamine]
0.0444	C[C@@H]1c2c(Nc3ncc(C(F)(F)F)c(NC4CC4)n3)cnn2CCN1C [Example 10, (R)-N4-cyclopropyl-N2-(4,5-dimethyl-4,5,6,7-tetrahydropyrazolo[1,5-a]pyrazin-3-yl)-5-(trifluoromethyl)pyrimidine-2,4-diamine]
0.39	CNc1nc(Nc2cnn3c2C(C)OC(C)C3)ncc1C(F)(F)F (single isomer, unassigned) [Example 21, N2-(4,6-dimethyl-6,7-dihydro-4H-pyrazolo[5,1-c][1,4]oxazin-3-yl)-N4-methyl-5-(trifluoromethyl)pyrimidine-2,4-diamine]
0.212	CNc1nc(Nc2cnn3c2C(C)OCC3(C)C)ncc1C(F)(F)F (stereo not shown) [Example 11, N4-methyl-5-(trifluoromethyl)-N2-(4,7,7-trimethyl-6,7-dihydro-4H-pyrazolo[5,1-c][1,4]oxazin-3-yl)pyrimidine-2,4-diamine]
0.0012	CCNc1nc(Nc2cnn3c2C(C)OCC3)ncc1C(F)(F)F (single isomer, unassigned) [Example 14, N4-ethyl-N2-(4-methyl-6,7-dihydro-4H-pyrazolo[5,1-c][1,4]oxazin-3-yl)-5-(trifluoromethyl)pyrimidine-2,4-diamine]
0.0049	C[C@H]1c2c(Nc3ncc(C(F)(F)F)c(NC4CC4)n3)cnn2CCN1C [Example 9, (S)-N4-cyclopropyl-N2-(4,5-dimethyl-4,5,6,7-tetrahydropyrazolo[1,5-a]pyrazin-3-yl)-5-(trifluoromethyl)pyrimidine-2,4-diamine]
0.0477	CCNc1nc(Nc2cnn3c2C(C)OCC3)ncc1C(F)(F)F (stereo not shown) [Example 13, N4-ethyl-N2-(4-methyl-6,7-dihydro-4H-pyrazolo[5,1-c][1,4]oxazin-3-yl)-5-(trifluoromethyl)pyrimidine-2,4-diamine]
0.819	CNc1nc(Nc2cnn3c2C2(COC2)OCC3)ncc1C(F)(F)F [Example 27, N^2-(6′7′-dihydrospiro[oxetane-3,4′-pyrazolo[5,1-c][1,4]oxazine]-3-yl)-N^4-methyl-5-(trifluoromethyl)pyrimidine-2,4-diamine]
